From US4734493A, “Novel anthracycline antibiotics” (Sanraku, Incorporated, priority 1985, dated 1988)
In brackets after ≈: the same amount, converted by molar mass. Like-named read-outs stand apart in the source and are kept apart here.

What was measured:
[1] = tested on: DNA synthesis in mouse leukemia L1210 culture cell; test: Nucleic acid synthesis inhibiting action: DNA synthesis (14C-thymidine intake) in L1210 culture cells; type: cell-based; conditions: 1 h, 60 minutes, 10% bovine serum, 37° C., read-out: 50% Inhibiting Concentration (IC50), Inhibition of DNA Synthesis
Method: (§1) For example, […] of L1210 cells were inoculated, on RPM 11640 medium (Rosewellberg Research Institute) containing 20% bovine serum and the compound of the present invention was supplemented in a concentration of 0.0005 to 0.25 μg/ml followed by culturing at 37° C. in a carbon dioxide gas incubator. A 50% proliferation inhibiting concentration was determined as compared to control. Further the aforesaid L1210 culture cells were suspended in 8×10^5 cells/ml in RPM 11640 medium containing 10% bovine serum. After culturing at 37° C. for 1 to 2 hours in a carbon dioxide gas incubator, the compound of the present invention was supplemented in various concentrations. Fifteen minutes after, ^14 C-uridine (0.05 μCi/ml) or ^14 C-thymidine (0.05 μCi/ml) was added to the system followed by culturing at 37° C. for 60 minutes. To the reaction mixture was added chilled 10% trichloroacetic acid to discontinue the reaction. At the same time, insoluble matters were precipitated, further washed twice with chilled 5% trichloroacetic acid and then dissolved in formic acid to provide for measurement of the radioactivity. A 50% intake inhibiting concentration was determined from a rate of intake of the radioactivity in the control group added with no compound.

murine L1210 leukemia = test: In vivo antitumor activity against murine L1210 leukemia in CDF1 mice
Method: The therapeutic effect of obelmycins were studied on CDF1 mice bearing L1210 leukemia, From 24 hours after 1×10^5 L1210 cells/animal were intraperitoneally transplanted to CDF1 mice, Obelmycins were intraperitoneally given everyday for 10 days. The prolongation of the survival time was calculated relative to control animals receiving physiological saline as 100.
Inoculation: 1×10^5 cells/mouse (ip)
Treatment: day 1 to 10, daily (ip)

[2] = tested on: mouse leukemia L1210 culture cell; test: Proliferation inhibiting action against mouse leukemia L1210 culture cells; type: cell-based
Method: as §1

[3] = tested on: RNA synthesis in mouse leukemia L1210 culture cell; test: Nucleic acid synthesis inhibiting action: RNA synthesis (14C-uridine intake) in L1210 culture cells; type: cell-based; conditions: 1 h, 60 minutes, 10% bovine serum, 37° C., read-out: 50% Inhibiting Concentration (IC50), Inhibition of RNA Synthesis
Method: as §1

[4] = L1210 cells, RPM 11640 medium with 20% bovine serum, 37° C., read-out: 50% Inhibiting Concentration (IC50), Inhibition of Cell Proliferation
[5] = dose 3.1 μg/kg/day ip, daily day 1 to 10, CDF1 mice n=6, survival time relative to saline control as 100
[6] = L1210, read-out: 50% Inhibiting Concentration (IC50), Inhibition of Cell Proliferation

Row | SMILES | IC50 [1] [µg/mL] | Antitumor effect T C (%) (murine L1210 leukemia; ip, 0.1 mg/kg, 24 h) | IC50 [2, 4] [µg/mL] | IC50 [3] [µg/mL] | Antitumor effect T C (%) (murine L1210 leukemia; [5]) | IC50 [2, 6] [µg/mL] | Antitumor effect T C (%) (murine L1210 leukemia; dose 12.5 μg/kg/day ip, daily day 1 to 10, CDF1 mice n=6, survival time relative to saline control as 100) | Antitumor effect T C (%) (murine L1210 leukemia; ip, 0.025 mg/kg, 24 h) | Antitumor effect T C (%) (murine L1210 leukemia; dose 200 μg/kg/day ip, daily day 1 to 10, CDF1 mice n=6, survival time relative to saline control as 100)
1 | CCC1(O)CC(OC2CC(N(C)C)C(O)C(C)O2)c2c(O)c3c(c(O)c2C1O)C(=O)c1c(O)ccc(O)c1C3=O (stereo not shown) [Obelmycin A] | 0.58 (≈ 1.04 µM) | 185 | 0.001 (≈ 0.00179 µM) | 0.14 (≈ 0.25 µM) | – | – | – | – | –
2 | CCC1(O)CC(OC2CC(N(C)C)C(OC3CCC(OC4CCC(O)C(C)O4)C(C)O3)C(C)O2)c2c(O)c3c(c(O)c2C1OC1CC(N(C)C)C(OC2CCC(OC4CCC(O)C(C)O4)C(C)O2)C(C)O1)C(=O)c1c(O)ccc(O)c1C3=O (stereo not shown) [Obelmycin B] | 0.26 (≈ 0.222 µM) | – | – | 0.025 (≈ 0.0213 µM) | 150 | 0.0009 (≈ 0.000767 µM) | – | – | –
3 | CCC1(O)CC(OC2CC(N(C)C)C(OC3CC(O)C(OC4CCC(O)C(C)O4)C(C)O3)C(C)O2)c2c(O)c3c(c(O)c2C1OC1CC(N(C)C)C(OC2CCC(OC4CCC(O)C(C)O4)C(C)O2)C(C)O1)C(=O)c1c(O)ccc(O)c1C3=O (stereo not shown) [Obelmycin C] | 0.38 (≈ 0.32 µM) | – | – | 0.043 (≈ 0.0362 µM) | 145 | 0.001 (≈ 0.000841 µM) | – | – | –
4 | CCC1(O)CC(OC2CC(N(C)C)C(OC3CC(O)C(OC4CCC(O)C(C)O4)C(C)O3)C(C)O2)c2c(O)c3c(c(O)c2C1OC1CC(N(C)C)C(OC2CC(O)C(OC4CCC(O)C(C)O4)C(C)O2)C(C)O1)C(=O)c1c(O)ccc(O)c1C3=O (stereo not shown) [Obelmycin D] | 1.2 (≈ 0.996 µM) | – | – | 0.175 (≈ 0.145 µM) | 140 | 0.004 (≈ 0.00332 µM) | – | – | –
5 | CCC1(O)CCc2c(O)c3c(c(O)c2C1OC1CC(N(C)C)C(OC2CCC(OC4CCC(O)C(C)O4)C(C)O2)C(C)O1)C(=O)c1c(O)ccc(O)c1C3=O (stereo not shown) [Obelmycin E] | 1.3 (≈ 1.68 µM) | – | – | 0.78 (≈ 1.01 µM) | – | 0.062 (≈ 0.0803 µM) | 135 | – | –
6 | CCC1(O)CCc2c(O)c3c(c(O)c2C1OC1CC(N(C)C)C(OC2CC(O)C(OC4CCC(O)C(C)O4)C(C)O2)C(C)O1)C(=O)c1c(O)ccc(O)c1C3=O (stereo not shown) [Obelmycin F] | 1.43 (≈ 1.82 µM) | – | 0.092 (≈ 0.117 µM) | 0.6 (≈ 0.762 µM) | – | – | – | 130 | –
7 | CCC1(O)CCc2c(O)c3c(c(O)c2C1OC1CC(N(C)C)C(O)C(C)O1)C(=O)c1c(O)ccc(O)c1C3=O (stereo not shown) [Obelmycin G] | 1.5 (≈ 2.76 µM) | – | 0.2 (≈ 0.368 µM) | 1.1 (≈ 2.02 µM) | – | – | – | – | 145
